# Data as given in patent publication US20230285282A1, “OCULAR IMPLANT CONTAINING AN ACTIVE INGREDIENT” (OCULAR THERAPEUTIX, INC., priority 2020, published 2023).
# Read-outs that look alike come from different tables or passages of the source.
# Assays:
# [1] = cited from earlier work
# [2] = 1.25 mg intravitreal, rabbits; cited from earlier work
# [3] = test system: vascular leakage; test: VEGF challenge, vascular leakage scored by fluorescein angiography; type: in vivo, Dutch belted rabbits
# Description: For efficacy studies, 12 animals (with and without the implant) received an […] VEGF challenge (1 μg) 48 hours prior to selected time points (1, 2, 3, and 6 months after implant injection; 3 animals euthanized at each time point) to induce vascular proliferation and leakage. Rabbits were followed for 6 months from the administration of the implant. Eyes were imaged 48 hours post VEGF challenge using fluorescein angiography (FA) after intravenous injection of fluorescein and were graded on a scale from 0 to 4 (Table 9). Each eye was scored on the left and right side to account for non-uniformity in inflammatory response. FA scores were then averaged for each eye.
# Animals from each group were […] challenged with VEGF (1 μg) 48 hours prior to selected time points (0.5, 1, 3, 6, 9, 12, 14, 16, 19, 20, and 21 months) to induce vascular proliferation and leakage. Eyes were imaged 48 hours post VEGF challenge time-points using fluorescein angiography (FA) and were graded on a scale from 0 (normal) to 4 (severe leakage) as described under Example 3.2.
# [4] = physchem; conditions: PBS, 37 °C, pH 7.2, aqueous buffer
# [5] = test system: CYP3A4/5; conditions: cited from earlier work
compound,measurement,setting,value
ranibizumab: anti-VEGF agent,t1/2 in the human eye,[1],several days
Avastin®: anti-VEGF therapeutic,half-life,[2],158 h
same,duration of effect post injection,[3]; 1.25 mg Avastin only,≤ 3 months
same,vascular leakage after VEGF challenge,[3]; 1.25 mg Avastin only (group 3),after 3 months vascular leakage re-occurred
"CNC(=O)c1ccccc1Sc1ccc2c(/C=C/c3ccccn3)n[nH]c2c1 [axitinib, N-methyl-2-[3-((E)-2-pyridin-2-yl-vinyl)-1H-indazol-6-ylsulfanyl]-benzamide]",clearance half-life (t1/2),[1]; Rugo et al. 2005,a few hours
same,solubility,[4],0.4 to 0.5 µg/mL
same,axitinib exposure (Cmax),[5]; co-administration with oral ketoconazole,increased
same,axitinib exposure (Cmax),[5]; co-administration with rifamycin,decreased
aflibercept: anti-VEGF agent,t1/2 in the human eye,[1],several days
